US20030207886A1, “Preparation containing quinoxaline derivatives” (priority 2000, published 2003)

Assay: Maxima of UV-A and UV-B absorption of quinoxaline derivatives in 2-propanol
Type: physicochemical
Conditions: 1 mg of substance per 100 ml of solvent; for UV-A (400 320 nm) Max. abs.: absorbance at UV-A maximum; for UV-A (400 320 nm) λ [nm]: wavelength of UV-A maximum; for UV-B (280 320 nm) Max. abs.: absorbance at UV-B maximum; for UV-B (280 320 nm) λ [nm]: wavelength of UV-B maximum
Method: The measurement was carried out in 2-propanol at a concentration of 1 mg of substance per 100 ml of solvent.

c1ccc2nc(Oc3cnc4ccccc4n3)cnc2c1
UV-A (400 320 nm) Max. abs.: 0.2587 | UV-A (400 320 nm) λ [nm]: 320.0 nm

c1ccc(CNc2cnc3ccccc3n2)cc1
UV-A (400 320 nm) Max. abs.: 0.2602 | UV-A (400 320 nm) λ [nm]: 364.0 nm

O=C(O)c1ccc(Nc2nc3ccccc3nc2-c2ccccc2)cc1
UV-A (400 320 nm) Max. abs.: 0.325 | UV-B (280 320 nm) Max. abs.: 0.452 | UV-A (400 320 nm) λ [nm]: 376.8 nm | UV-B (280 320 nm) λ [nm]: 303.8 nm

Fc1ccc2nc3nc4ccccc4nc3n2c1
UV-A (400 320 nm) Max. abs.: 0.132 | UV-A (400 320 nm) λ [nm]: 344.6 nm

COc1cc(Nc2cnc3ccccc3n2)c(C(=O)O)cc1OC
UV-A (400 320 nm) Max. abs.: 0.456 | UV-B (280 320 nm) Max. abs.: 0.455 | UV-A (400 320 nm) λ [nm]: 380.1 nm | UV-B (280 320 nm) λ [nm]: 300.1 nm

CCOC(=O)c1nc2ccccc2nc1Nc1cc(OC)c(OC)cc1C(=O)O
UV-B (280 320 nm) Max. abs.: 0.5713 | UV-B (280 320 nm) λ [nm]: 295.0 nm

CC(C)(C)OC(=O)c1ccc(Nc2cnc3ccccc3n2)cc1
UV-A (400 320 nm) Max. abs.: 0.506 | UV-B (280 320 nm) Max. abs.: 1.172 | UV-A (400 320 nm) λ [nm]: 374.3 nm | UV-B (280 320 nm) λ [nm]: 306.3 nm

O=c1[nH]c2ccccc2nc1-c1ccccc1
UV-A (400 320 nm) Max. abs.: 0.360 | UV-B (280 320 nm) Max. abs.: 0.373 | UV-A (400 320 nm) λ [nm]: 365.0 nm | UV-B (280 320 nm) λ [nm]: 305.0 nm

CCOC(=O)c1nc2ccccc2nc1Nc1ccc(C(=O)O)cc1
UV-B (280 320 nm) Max. abs.: 1.270 | UV-B (280 320 nm) λ [nm]: 311.5 nm

O=C(O)c1ccc(CNc2nc3ccccc3nc2Cl)cc1
UV-B (280 320 nm) Max. abs.: 0.2183 | UV-B (280 320 nm) λ [nm]: 290.0 nm

CCOC(=O)c1nc2ccccc2nc1Nc1cc(OC)c(OC)c(OC)c1
UV-B (280 320 nm) Max. abs.: 0.614 | UV-B (280 320 nm) λ [nm]: 295.6 nm

Clc1nc2ccccc2nc1-c1ccccc1
UV-A (400 320 nm) Max. abs.: 0.173 | UV-A (400 320 nm) λ [nm]: 335.0 nm

CCC(CC)COC(=O)c1ccc(Nc2cnc3ccccc3n2)c(O)c1
UV-B (280 320 nm) Max. abs.: 0.5569 | UV-B (280 320 nm) λ [nm]: 291.0 nm

Brc1cnc2ccccc2n1
UV-A (400 320 nm) Max. abs.: 0.4424 | UV-A (400 320 nm) λ [nm]: 321.0 nm

O=C(c1ccccc1)c1ccccc1Nc1cnc2ccccc2n1
UV-A (400 320 nm) Max. abs.: 0.424 | UV-A (400 320 nm) λ [nm]: 395.4 nm

CCc1ccn2c(c1)nc1nc3ccccc3nc12
UV-A (400 320 nm) Max. abs.: 0.536 | UV-A (400 320 nm) λ [nm]: 356.1 nm

O=C(OC/C=C/c1ccccc1)c1ccccc1Nc1cnc2ccccc2n1
UV-A (400 320 nm) Max. abs.: 0.469 | UV-A (400 320 nm) λ [nm]: 386.3 nm

CC(=O)c1nc2ccccc2nc1C(C)=O
UV-B (280 320 nm) Max. abs.: 0.3011 | UV-B (280 320 nm) λ [nm]: 310.0 nm

CCOC(=O)c1nc2ccccc2nc1Nc1ccc(C(C)=O)cc1
UV-A (400 320 nm) Max. abs.: 1.2265 | UV-A (400 320 nm) λ [nm]: 328.5 nm

CC(C)c1ccc(C(=O)c2nc3ccccc3nc2C(=O)c2ccc(C(C)C)cc2)cc1
UV-B (280 320 nm) Max. abs.: 0.45 | UV-B (280 320 nm) λ [nm]: 280.0 nm

Fc1cc(F)c(N(c2cnc3ccccc3n2)c2cnc3ccccc3n2)c(F)c1
UV-B (280 320 nm) Max. abs.: 0.966 | UV-B (280 320 nm) λ [nm]: 289.3 nm

Clc1nc2ccccc2nc1C#Cc1ccccc1
UV-B (280 320 nm) Max. abs.: 0.6431 | UV-B (280 320 nm) λ [nm]: 286.0 nm

FC(F)(F)c1cc(CNc2cnc3ccccc3n2)cc(C(F)(F)F)c1
UV-A (400 320 nm) Max. abs.: 0.192 | UV-A (400 320 nm) λ [nm]: 359.0 nm

COc1cc(Nc2nc3ccccc3nc2-c2ccccc2)c(C(=O)O)cc1OC
UV-A (400 320 nm) Max. abs.: 0.235 | UV-B (280 320 nm) Max. abs.: 0.635 | UV-A (400 320 nm) λ [nm]: 393.4 nm | UV-B (280 320 nm) λ [nm]: 285.6 nm

CC(C)OC(=O)c1ccc(Nc2nc3ccccc3nc2-c2ccccc2)cc1
UV-A (400 320 nm) Max. abs.: 0.342 | UV-B (280 320 nm) Max. abs.: 0.849 | UV-A (400 320 nm) λ [nm]: 381.9 nm | UV-B (280 320 nm) λ [nm]: 305.3 nm

Cc1ccc(S(=O)(=O)c2cnc3ccccc3n2)cc1
UV-A (400 320 nm) Max. abs.: 0.1595 | UV-A (400 320 nm) λ [nm]: 321.0 nm
